Assay results: patent US11840913B2, “Methods for stimulation of hydrocarbon-bearing formations while inhibiting corrosion of metal surfaces contacted by acid solutions used in stimulation” (Fluid Energy Group Ltd., priority 2019, dated 2023)

How the values were obtained:
[1] = Visual corrosion testing on grease-coated wireline (Example 7); conditions: MEA-HCl 1:4.1 molar ratio at 33% dilution in water; 48 hours; 60° C.
Procedure: A visual corrosion testing was carried out on wireline using three different coatings.
It is worth noting that the acid strength was the same in all three samples and the acidic composition only differed between the first two samples and the last sample with the presence of component B2.

[2] = Corrosion testing of 316 steel coupons in acidic fluids with corrosion inhibitors
Description: Corrosion inhibitor compositions according to preferred embodiments of the present invention were exposed to corrosion testing. Various steel grades (stainless steel and carbon steel) were subjected to acid compositions comprising corrosion inhibitors according to the present invention against known corrosion inhibitors to the listed compositions for various periods of time at varying temperatures. A desirable corrosion inhibition result was one where the lb/ft^2 corrosion number is at or below 0.05. More preferably, that number is at or below 0.02.
33% HCl:MEA in a 5.5:1 ratio and 50% HCl:MEA in a 5.5:1 ratio indicate the volume amount of the original concentration of a stock solution containing HCl and monoethanolamine in a ratio of 5.5:1. The HCl loading of a 33% HCl:MEA in a 5.5:1 ratio is approximately 6.5% HCl. The HCl loading of 50% HCl:MEA in a 5.5:1 ratio is approximately 10% HCl.

Compound	visual inspection of wireline wire sheathing after acid exposure [1]	prevention of pitting ([2]; higher temperatures (even 110° C. to 120° C.))	film forming, protection of the stainless steel ([2]; 90° C. to 110° C.)
CC(C)=CCCC(C)=CC=O (racemic) [citral, (±)-3,7-Dimethyl-2,6-octadienal]	completely stripped of its wire sheathing	some effectiveness	–
O=CC=Cc1ccccc1 [ZA, cinnamaldehyde]	–	–	effective film former
